Structures can show the parent of a compound that is named as a salt. Where two headings read alike, the source gives them in different places.
What was measured:
[1] = system: heart rate response to isoproterenol (β-adrenergic); assay: Heart rate response to isoproterenol in rats (initial drug screening); assay type: in vivo, male Spraque-Dawley rats; details: 6 mg/kg i.p.; for resting heart rate prior to administration of isoproterenol: mean ± SEM
Description: (§1) Initial Drug Screening Protocol. Thirty-two male Spraque-Dawley rats (Blue Spruce Farms) initially weighing 300-450 gm were divided into seven different groups, each for a different drug to be tested: 12(n=4), 14(n=4), 17(n=5), 13(n=4) and 18(n=3), corresponding to the designated compounds 12, 14, 17, 13 and 18 (number of animals), respectively. The other two groups were controls (n=8, isoproterenol alone pretreated with carrier) and those treated with a known β-blocker, dl-propranolol (n=3). Ech animal was anesthetized with sodium pentobarbital (45 mg/kg) and the carotid artery was cannulated with PE-50 tubing. The cannula was subcutaneously threaded around the neck and exteriorized dorsally between the shoulder blades. Th cannula was filled with a heparin solution (300 μg/mL) and sealed with a solid 22 gauge stylet. The animals were housed in individual stainless steel cages, and two days were allowed for recovery from the surgery. Food and water were provided ad libitum. On the day of the experiment, the blood pressure and heart rate of each rat were monitored with a pressure transducer (Narco-Bio model P-1000) and the data recorded on a four-channel physiograph (Narco-Bio systems Marck IV). One hour was allowed as an equilibration period before any drugs were administered. All beta blockers were administered intraperitoneally at a dose of 6 mg/kg. Compounds 12 and 14 and dl-proranolol were dissolved in normal saline while compounds 13, 17 and 18 were dissolved in an ethanol: water solution (3:1). Depending on the trial, controls were administered the appropriate carrier. One hour after administration of the blocker, isoproterenol (Isuprel®, Wintrop Laboratories) was administered subcutaneously at a dose of 25 μg/kg. Blood pressures and heart rate also were recorded 3, 5, 10, 15, 20, 30, 45 and 60 minutes after isoproterenol administration. Both control and experimental animals were unrestrained and free moving in their home cage throughout the experiment. […] However, significant differences in the mean heart rate response amoung the 7 groups were observed: *p<0.005;**p<0.025. Comparisons between groups were made by the Newman-Keuls procedure with significance set at the 95% confidence interval. […] All data are shown as mean±standard error of the mean.

[2] = system: heart rate response to isoproterenol (β-adrenergic); assay: Cardiovascular experiments in dogs: blockade of isoproterenol heart rate response; assay type: in vivo, mongrel dogs; details: for Duration, Mean (time at which response to isoproterenol had returned to control levels) / Duration, Range (time at which response to isoproterenol had returned to control levels) / Maximal blockade, Mean (time necessary to reach maximal blockade) / Maximal blockade, Range (time necessary to reach maximal blockade): 1 mg/kg i.v.; for Maximal blockade, Mean (time necessary to reach maximal blockade) / Maximal blockade, Range (time necessary to reach maximal blockade): 15 minute measurements
Experimental: Method. Healthy, mongrel dogs were anesthetized with a combination of morphine sulfate (2.0 mg/kg, subcutaneously) followed in 20 minutes with pentabarbital sodium (15 mg/kg, intravenously). Supplemental pentabarbital was given as necessary. A femoral vein was catheterized with polyethylene tubing to the level of the heart for injecting drug solutions. A polyethylene tube filled with heparinized saline was inserted through the femoral artery and advanced to the thoracic aorta for the measurement of arterial pressure. The left carotid artery was cannulated with a Millar® transducer-tip catheter for measurement of left ventricular pressure (LVP). The rising slope of the LVP signal was differentiated to give dP/dt, an estimate of myocardial contractility. Heart rate was determined via a Grass cardiotachometer triggered by the R wave of the lead II EKG. All variables were recorded on a Grass polygraph.
Dose-response curves were constructed for each experimental variable to graded i.v. doses of the β-adrenergic agonist, isoproterenol. A period of 3-5 minutes was allowed after each injection for variables to return to base-line. Following this, one of the four experimental β-adrenergic blocking agents was given i.v. over a one-minute period. Abbreviated dose-response curves (2-3 dose points) were again constructed to isoproterenol at 15, 30, 45, 60, 75 and 90 minutes after the administration of the test blockers. Using a 50-beat per minute (bpm) increase in heart rate as criteria, the degree of blockade was determined by dividing the dose of isoproterenol needed to produce a 50 bpm increase at various times following administration of an antagonists by the dose needed for this effect during the control period. The doses of the experimental β-adrenergic antagonists given were determined from previous experiments to produce an approximate two- or four-fold blockade of the heart rate response to isoproterenol.

[3] = Hydrolytic rate in 0.01 N aqueous sodium hydroxide, pH 12.0; assay type: physicochemical; details: for Observed pseudo first order hydrolytic rate constant k: 0.01 N NaOH, ± SEM; for Observed pseudo first order hydrolytic rate constant k / half-life: pH 12.0, ionic strength 0.10 M (NaCl), 27.3 ± 0.2° C.; for half-life: 0.01 n naoh, pH 12, 0.01 N NaOH, read-out: Half-life t1/2
Experimental: (§2) Analytical Methods. A high pressure liquid chromatography (HPLC) method was developed for the determination of the rate constants. The chromatographic analysis was performed in a system consisting of Waters Associates Model 600-A Solvent Delivery System, Model U-6K Injector and Model 440 Dual Channel Absorbance Detector operated at 254 and 280 nm. A 30 cm×3.9 mm (internal diameter) reverse phase μBondpack C18 column (Waters Associates), operated at ambient temperature, was used for all separations. When plasma samples were analyzed, the column was protected with a 2.3 cm×3.9 mm (internal diameter) Guard Column (Waters) packed with μBondpack C18/Corasil packing material. The mobile phase used for the separation of 17 and its degradation product, 5, consisted of water, 1-hexane sulfonic acid in acetic acid (B-6 reagent, Waters), 0.1M triethanolamine and methanol (100:1:100:799). […] For the separation of compounds 10-16 and 18 and their degradation product 5, a mobile phase consisting of water, 1-hexane sulfonic acid in acetic acid (B-6 reagent, Waters), 0.1M triethanolamine and methanol (390:1:10:599) was used.
(§3) Determination of the Hydrolytic Rate Constants in Aqueous Solutions. A 0.01M phosphate buffer and 0.01N sodium hydroxide solution were prepared from freshly distilled deionized water. This ionic strength was maintained at 0.1M with sodium chloride. The pH of the phosphate buffer was determined at 37.0° C. with a pH meter standardized at this temperature. For determination of the hydrolytic rate constants, a fresh concentrated solution of the ester in methanol was added to the hydrolytic medium previously equilibrated to the desired temperature and mixed thoroughly to result in an initial concentration of about 5×10^-4 mol. liter^-1. All reactions were run under pseudo first order conditions. Samples of 25 μL were injected into the column at various time intervals and the pseudo first order rate constants were determined from disappearance of the compound by linear regression of natural logarithm of the peak height versus time plots. The half-life and standard error of the rate constant were calculated for each run.

[4] = Enzymatic hydrolytic cleavage in human plasma; assay type: in vitro ADME; details: for Observed first order hydrolytic rate constant k: ± SEM; for half-life at 1000 µM: human, plasma; for hydrolysis in human plasma: three hours where stated
Experimental: as §2, §3
Determination of the Enzymatic Hydrolytic Cleavage Rates in Human Plasma. The freshly collected plasma used was obtained from the Civitan Regional Blood Center, Inc. (Gainesville, Fla.) and contained about 80% plasma diluted with anticoagulant citrate phosphate dextrose solution, U.S.P. The plasma was stored in a refrigerator and used within one week from the date it was collected.
A portion of 50 μL of a freshly prepared solution of the compound in methanol was added to 10 mL plasma, previously equilibrated at 37.0° C. in a water bath, and mixed thoroughly to result in an initial concentration of 1×10^-3 mol. liter^-1. One mL samples of plasma were withdrawn from the test medium, mixed immediately with 4.0 mL ice cold 95% v/v ethanol, centrifuged and the supernatant analyzed by HPLC. The first order hydrolytic rate constant was determined as before in the aqueous solutions and the results are listed in TABLE II below.

[5] = system: blood pressure response to isoproterenol; assay: Blood pressure response to isoproterenol in rats; assay type: in vivo, male Spraque-Dawley rats; details: 6 mg/kg i.p.
Description: as §1
Symbols are the same as those described for FIG. 1. […] Data are shown as mean±standard error of the mean.

[6] = 37.0 ± 0.1° C., read-out: Half-life t1/2

| Structure (SMILES) | Observed pseudo first order hydrolytic rate constant k [3] | half-life [3] | Observed first order hydrolytic rate constant k ([4]; 37.0 ± 0.1° C.) | half-life at 1000 µM [4, 6] | resting heart rate prior to administration of isoproterenol [1] | Duration, Mean (time at which response to isoproterenol had returned to control levels) [2] | Duration, Range (time at which response to isoproterenol had returned to control levels) [2] | Maximal blockade, Mean (time necessary to reach maximal blockade) [2] | Maximal blockade, Range (time necessary to reach maximal blockade) [2] | other results |
| --- | --- | --- | --- | --- | --- | --- | --- | --- | --- | --- |
| CC(C)NCC(O)COc1cccc2ccccc12 (racemic) [d,l-propranolol, dl-propranolol, reference compound] | – | – | – | – | 320±23 beat/minute | – | – | – | – | – |
| CC(C)NCC(O)COc1ccc(CC(=O)OC2CCCCC2)cc1 (centres unmarked) [Compound 15, Cyclohexyl 4-(2-hydroxy-3-isopropylamino)propoxyphenylacetate oxalate 3/4 hydrate] | 4.96 ± 0.03 × 10^-2 min^-1 | 14 min | 1.46 ± 0.15 min⁻¹ | 0.47 min | – | ~ 85 min | 75 to 90 min | 20 min | 15 to 30 min | duration of action ([2]; i.v.): longest duration of action; time after administration at which antagonism dissipated / heart rate responsiveness returned to control ([2]; i.v.): approximately 90 minutes; β1-antagonist activity / blocking of cardiac effects of isoproterenol ([2]; i.v., FIG. 4): most potent in blocking the cardiac effects of isoproterenol; half-life at 1000 µM ([4]; shortest, read-out: plasma hydrolytic half-life): < 1 min |
| CCCCOC(=O)Cc1ccc(OCC(O)CNC(C)(C)C)cc1 (centres unmarked) [Compound 18, n-Butyl 4-(2-hydroxy-3-tert-butylamino)propoxyphenylacetate oxalate hydrate] | 7.19 ± 0.04 × 10^-2 min^-1 | 9.64 min | 0.351 ± 0.019 min⁻¹ | 1.98 min | 307±7 beat/minute | – | – | – | – | hydrolysis in human plasma ([4]; 37.0 ± 0.1° C.): did not affect the hydrolysis rates |
| CC(C)NCC(O)COc1cccc2ccccc12 (centres unmarked) [propranolol, reference compound] | – | – | – | – | – | – | – | – | – | mean heart rate response to isoproterenol, comparison between groups ([1]; 1 hour before isoproterenol 25 μg/kg s.c., Newman-Keuls, first 20 minutes (17) or first 30 minutes (propranolol)): significantly different for the first 30 minutes; mean heart rate response to isoproterenol vs groups treated with compound 12 and 18 ([1]; 10 through 45 minutes following isoproterenol): significantly different than the groups treated with compound 12 and 18 |

Continued, in another order:

| Observed pseudo first order hydrolytic rate constant k [3] | half-life [3] | Observed first order hydrolytic rate constant k ([4]; 37.0 ± 0.1° C.) | half-life at 1000 µM [4, 6] | Structure (SMILES) | resting heart rate prior to administration of isoproterenol [1] | Duration, Mean (time at which response to isoproterenol had returned to control levels) [2] | Duration, Range (time at which response to isoproterenol had returned to control levels) [2] | Maximal blockade, Mean (time necessary to reach maximal blockade) [2] | Maximal blockade, Range (time necessary to reach maximal blockade) [2] | other results |
| --- | --- | --- | --- | --- | --- | --- | --- | --- | --- | --- |
| 0.117 ± 0.001 min⁻¹ | 5.91 min | 0.238 ± 0.010 min⁻¹ | 2.91 min | CCOC(=O)Cc1ccc(OCC(O)CNC(C)C)cc1 (centres unmarked) [Compound 10, Ethyl 4-(2-hydroxy-3-isopropylamino)-propoxyphenylacetate] | – | ~ 50 min | 45 to 60 min | 15 min | 15-15 min | – |
| 2.07 ± 0.03 × 10^-2 min^-1 | 33.5 min | 0.414 ± 0.001 × 10^-2 min^-1 | 167 min | CC(C)NCC(O)COc1ccc(CC(=O)OC(C)C)cc1 (centres unmarked) [Compound 12, Isopropyl 4-(2-hydroxy-3-isopropylamino)propoxyphenylacetate] | 345±19 beat/minute | – | – | – | – | hydrolyzed up to x times more slowly than many of the other esters [4]: up to 100 times |
| 9.27 ± 0.07 × 10^-2 min^-1 | 7.48 min | – | – | CCCCOC(=O)Cc1ccc(OCC(O)CNC(C)C)cc1 (centres unmarked) [Compound 13, n-Butyl 4-(2-hydroxy-3-isopropylamino)propoxyphenylacetate] | 340±14 beat/minute | – | – | – | – | half-life at 1000 µM ([4]; read-out: in vitro plasma half-life): ~1 min; control of heart rate 60 minutes after administration ([1]; FIG. 1): effectively control the heart rate; mean change in blood pressure vs propranolol and compound 12-treated groups ([5]; isoproterenol 25 μg/kg s.c., FIG. 3): significantly lower (p<0.15); mean change in blood pressure at 10 minutes vs compound 12-treated group ([5]; 10 minutes after isoproterenol): different from the compound 12-treated group; mean change in blood pressure at 10 minutes vs compound 18 group ([5]; 10 minutes after isoproterenol): significantly different from the group treated with compound 18; mean change in blood pressure at 15 minutes vs compound 12, 18 and control vehicle ([5]; 15 minutes after isoproterenol): significantly different from groups pretreated with compound 12, 18 and the control vehicle |
| – | – | 1.64 ± 0.14 × 10^-2 min^-1 | 42.2 min | CC(C)NCC(O)COc1ccc(CC(=O)OC2C(C)CCCC2C)cc1 (centres unmarked) [Compound 16, 2,6-Dimethylcyclohexyl 4-(2-hydroxy-3-isopropylamino)propoxyphenylacetate oxalate hydrate] | – | ~ 65 min | 45 to 90 min | 38 min | 15 to 60 min | duration of action ([2]; i.v.): much more variable and generally longer; hydrolysis kinetics ([3]; pH 12, 1:2 mixture of two isomers): biphastic kinetics; hydrolysis in human plasma ([4]; 37.0 ± 0.1° C., oxalate hydrate): did not hydrolyze in the plasma within 3 hours |

Reference: patent publication US4829086A, “Soft β-adrenergic blocking agents” (priority 1985, dated 1989)
